# Data taken from publication PMC11558679, “Artificial Zymogen Based on Protein–Polymer Hybrids” (Biomacromolecules, 2024).
# “And” between values parts separate entries of the source, which are not always exact repeats. Equal entries are not always repeated. Where two headings read alike, the source gives them in different places. Square brackets hold non-standard residues; d marks the D form. Peptide text beside a SMILES is read from it. * marks the point of attachment. OEGMA = oligo(ethylene glycol) methacrylate; PEG4 = NCCOCCOCCOCCOCCC(=O)O; Tos = Cc1ccc(S(=O)(=O)*)cc1; Isobutyryl = CC(C)C(=O)*; NHBn = c1ccc(CN*)cc1; Sar = CNCC(=O)O
# T1: native trypsin (Bos taurus, UniProt P00760)
# T1 construct: purchased Sigma-Aldrich; host or cells: bovine pancreas
# T1 sequence (P00760 24-246): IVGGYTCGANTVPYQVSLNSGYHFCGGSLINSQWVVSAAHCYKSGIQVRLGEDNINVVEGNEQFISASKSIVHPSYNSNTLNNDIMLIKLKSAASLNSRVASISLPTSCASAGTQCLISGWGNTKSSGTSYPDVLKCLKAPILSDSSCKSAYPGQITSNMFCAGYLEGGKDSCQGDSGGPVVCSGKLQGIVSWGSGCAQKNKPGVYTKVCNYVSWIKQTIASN
# What was measured:
# Type in all cases: biochemical, bovine
# native trypsin = target: T1, native trypsin; assay: Inhibition of native trypsin by model peptide inhibitor and macromonomer; details: for Ki: substrate Tos-GPR-pNA, 100 mM Tris-HCl and 20 mM CaCl2 (pH 8.0), 37 °C, [TR]0 = 8.4 nM, from secondary plot KM/Vmax app vs [I]0; for Km: read-out: apparent KM
# Text: (§1) Co mparison of K M of peptide substrates and K i of model peptide inhibitors and ma cro mono mers against native trypsin and chymotrypsin.
# (§2) By observing the initial rate of enzyme activity in the presence of th e peptide inhibitor or macromonomer, the K i value of the inhibitor peptide and macromonomers can be determined (Figures S9 for native trypsin,and S14 for native ch ymotrypsin). The apparent KM and Vmax values are obtained b y si multaneousl y mixing nat ive trypsin or ch ymotr ypsin, a peptide substrat e, and a peptide inhibitor, and then monitoring the pNA produced b y enzymatically catal yzed hydrol ysis of the p eptide substrate. The apparent KM and Vmax values were calculated using EnzFitter with Michaelis-Menten curve fitting of substrate against initial velocity plots ( Fi g u re S10 and S12 and Table S1 and S2 for native trypsin, and Figure S15 and S17 and T ab l e S3 and S4 for native ch ymotr ypsin ). The plot of K M ass/Vma x app versus [I]0 or [macromonomers]0 yields a straight line with a y-intercept of K M/Vmax and a slope of K M/(Vmax ·Ki) (Figures S11 and S13 for native tr ypsin and S1 6 and S18 for native ch ymotrypsin, respsctiver y ). The inhibition constant (Ki) of the peptide inhibi tor or macromonomer was calculated b y simply dividing the y -inter cept […]
# (1 picture or pasted object on this page, not shown here)
# Table S1. Apparent KM a nd Vma x values for native trypsin incubated with Tos-GPR-pNA (substrate) and Tos-GPRP -NHBzl (inhibitor) at 37 °C in 100 mM Tris-HCl and 20 mM CaCl2 buffer (pH 8.0) […]
# Buffer: 100 mM Tris-H Cl a nd 20 mM Ca Cl2 (pH 8.0) at 37 °C, [TR]0 = 8.4 nM, [TosGPRpNA]0 = 0 – 302 µ M a nd [TosGP RP Bzl]0 = 0 – 500 µM, Monitor Abs at 412 nm.
# Figure S11. Secondary plot with calculated apparent K M and Vmax values were used to determine inhibition constants of the peptide inhibitor towards native trypsin.
# Figure S12. Michaelis-Menten Plots adding a the macromonomer containing a CT -cleavable and a TR-inhibiting peptides (T o s GPRPr o -PEG4-AAPFAA OE GMA) to a native trypsin solution.
# Table S2. Apparent KM a nd Vma x values for native trypsin incubated with Tos-GPR-pNA (substrate) and the macromonomer containing a CT -cleavable and a TR-inhibiting peptides (TosGPRPro-PEG4-AAPFAA OEGMA) at 37 °C in 100 mM Tris -HCl and 20 mM CaCl2 buffer (pH 8.0) .
# Buffer: 100 mM Tris-H Cl a nd 20 mM Ca Cl2 (pH 8.0) at 37 °C, [TR]0 = 8.4 nM, [TosGPRpNA]0 = 0 – 241 µ M a nd [ macro mono mer]0 = 0 – 200 µM, Monitor Abs at 412 nm.
# native chymotrypsin = target: T2, native chymotrypsin (Bos taurus, UniProt P00766); assay: Inhibition of native chymotrypsin by model peptide inhibitor and macromonomer; details: for KM/Vmax / apparent Vmax / kcat / kcat/KM / Km: [sucAAPFpNA]0 = 0–768 µM; for Km: read-out: apparent KM
# T2 construct: α-Chymotrypsin from bovine pancreas, Type II (CT); purchased Sigma-Aldrich; host or cells: bovine pancreas
# Text: as §1, §2
# Figure S1 5 .Michaelis -Menten Plots adding a peptide inhibitor to a native c hymot r yps i n s ol ut i on.
# Table S3. Apparent KM a nd Vma x values for native […] incubated with suc-AAPF -pNA ( subst r at e) and IB -AAPFSar-OMe (inhibitor) at 37 °C in 100 mM sodium phosphate buffer (pH 8.0) […]
# Buffer: 100 mM sodium phosphate (pH 8.0) at 37 °C, [CT]0 = 40 nM, [sucAAPFpNA]0 = 0 – 768 µ M and [IBAAPFSarOMe]0 = 0 – 500 µM, Monitor Abs at 412 nm.
# Table S4. Apparent KM a nd Vma x values for native […] incubated with suc-AAPF -pNA ( subst r at e) and macromonomer containing a TR cleavable and CT inhibiting peptides
# (IBAAPFSarPEG4GPRGGOEGMA) at 37 °C in 100 mM sodium phosphate buffer (pH 8.0) . […]
# macro mono mer]0 = 0 – 400 µM, Monitor Abs at 412 nm.
# Figure S18. Michaelis -Menten Plots adding a macromonomer containing a TR cleavable and CT inhibiting peptides (IBAAPFSarPEG4GPRGGOEGMA) to a native chymotrypsin solution.
# [1] = Biocatalytic assay (Michaelis–Menten) of TR and TR hybrids with Tos-Gly-Pro-Arg-pNA
# Method: N-Tosyl-L-Gly-L-Pro-L-Arg-p-nitroanilide was used as a substrate for enzyme bioactivity assays. In a cuvette, 0.1 M Tris HCl and 20 mM calcium chloride buffer (890–990 μL, pH 8.0), substrate (0–100 μL, 2 mg/mL in DMSO), and enzyme (10 μL, 0.02 mg TR/mL in 100 mM Tris–HCl and 20 mM calcium chloride (pH 8.0), 8.4 nM as final concentration) were mixed for enzyme bioactivity assays. The rate of hydrolysis was determined by recording the increase in absorbance at 412 nm for the first 45 s after mixing. KM and kcat values were calculated using Enzfitter software when plotting substrate concentration versus initial hydrolysis velocity. […]
# Table S5. Char acterization and enzymatic activity of TR-pCBMA and inhibited pro- T R pol ymer h ybr i ds with different linkers between the inhibitory and cleavable peptide moieties.
# SEC-M ALLS anal ysi s Michaelis-Menten parameters d
# Mnb Mwb Đb DPc KM kcat kcat/KM samples kg mol-1 kg mol-1 (CBM A/inhibitor) (µM) (s-1) (µM-1 s-1) […]
# SEC -MALLS and 1H NMR spectra. d conditions: [TR]0 = 8.4 nM, [Tos-GPR-pNA]0 = 0 - 302 µM, buffer 100 mM Tris-HCl and 20 mM CaCl2 (pH 8.0) at 37 °C. […]
# [2] = [macromonomer]0 = 50 µM, [TosGPRpNA]0 = 0–241 µM
# [3] = [macromonomer]0 = 100 µM, [TosGPRpNA]0 = 0–241 µM
# [4] = [macromonomer]0 = 150 µM, [TosGPRpNA]0 = 0–241 µM
# [5] = [macromonomer]0 = 200 µM, [TosGPRpNA]0 = 0–241 µM
# [6] = [TR]0 = 8.4 nM, [Tos-GPR-pNA]0 = 0–302 μM, 100 mM Tris–HCl and 20 mM CaCl2 (pH 8.0), 37 °C, absorbance 412 nm, first 45 s, Enzfitter
molecule,measurement,setting,value
Tos-Gly-Pro-Arg-Pro-PEG4-Ala-Ala-Pro-Phe-Ala-Ala-OEGMA (Tos-GPRP[PEG4]AAPFAA-{OEGMA}) [TosGPRPro-PEG4-AAPFAA OEGMA],Ki,native trypsin; native TR,150 µM
COC(=O)CN(C)C(=O)[C@H](Cc1ccccc1)NC(=O)[C@@H]1CCCN1C(=O)[C@H](C)NC(=O)[C@H](C)NC(=O)C(C)C [isobutyryl-Ala-Ala-Pro-Phe-Sar-OMe] (Isobutyryl-AAPF[Sar]-OMe),Ki,native chymotrypsin,660 µM
same,KM/Vmax,native chymotrypsin; [inhibitor]0 = 125 µM,62.9 ± 6.8 s
same,KM/Vmax,native chymotrypsin; [inhibitor]0 = 250 µM,75.9 ± 11.5 s
same,KM/Vmax,native chymotrypsin; [inhibitor]0 = 375 µM,84.8 ± 12.7 s
same,KM/Vmax,native chymotrypsin; [inhibitor]0 = 500 µM,99.6 ± 11.7 s
"N-Tosyl-glycyl-L-prolyl-L-arginine p-nitroanilide acetate salt [Tos-Gly-Pro-Arg-pNA, reference compound]",Km,"[1]; rounded value in comparison with Ki, read-out: KM of the peptide substrate for native TR",20 µM
Cc1ccc(S(=O)(=O)NCC(=O)N2CCC[C@H]2C(=O)N[C@@H](CCCNC(=N)N)C(=O)N2CCC[C@H]2C(=O)NCc2ccccc2)cc1 [Tos-Gly-Pro-Arg-Pro-NHBzl] (Tos-GPRP-NHBn),KM/Vmax,"native trypsin; [inhibitor]0 = 125 µM, [TosGPRpNA]0 = 0–302 µM",48.3 ± 4.1 s
same,KM/Vmax,"native trypsin; [inhibitor]0 = 250 µM, [TosGPRpNA]0 = 0–302 µM",56.3 ± 5.0 s
same,KM/Vmax,"native trypsin; [inhibitor]0 = 375 µM, [TosGPRpNA]0 = 0–302 µM",73.4 ± 3.7 s
same,KM/Vmax,"native trypsin; [inhibitor]0 = 500 µM, [TosGPRpNA]0 = 0–302 µM",84.3 ± 6.0 s
same,Ki,native trypsin; native TR,430 µM
IB-Ala-Ala-Pro-Phe-Sar-PEG4-Gly-Pro-Arg-Gly-Gly-OEGMA [IBAAPFSarPEG4GPRGGOEGMA],KM/Vmax,native chymotrypsin; [macromonomer]0 = 100 µM,61.8 ± 6.2 s
same,apparent Vmax,native chymotrypsin; [macromonomer]0 = 100 µM,1.25 ± 0.03 µM/s
same,kcat,native chymotrypsin; [macromonomer]0 = 100 µM,34.8 ± 0.8 s⁻¹
same,kcat/KM,native chymotrypsin; [macromonomer]0 = 100 µM,450000 ± 50000 M⁻¹ s⁻¹
same,Km,native chymotrypsin; [macromonomer]0 = 100 µM,77.5 ± 7.6 µM
same,KM/Vmax,native chymotrypsin; [macromonomer]0 = 200 µM,65.3 ± 6.9 s
same,apparent Vmax,native chymotrypsin; [macromonomer]0 = 200 µM,1.25 ± 0.03 µM/s
same,kcat,native chymotrypsin; [macromonomer]0 = 200 µM,34.9 ± 0.8 s⁻¹
same,kcat/KM,native chymotrypsin; [macromonomer]0 = 200 µM,430000 ± 40000 M⁻¹ s⁻¹
same,Km,native chymotrypsin; [macromonomer]0 = 200 µM,82.1 ± 8.4 µM
same,KM/Vmax,native chymotrypsin; [macromonomer]0 = 300 µM,72.9 ± 7.1 s
same,apparent Vmax,native chymotrypsin; [macromonomer]0 = 300 µM,1.18 ± 0.03 µM/s
same,kcat,native chymotrypsin; [macromonomer]0 = 300 µM,32.8 ± 0.7 s⁻¹
same,kcat/KM,native chymotrypsin; [macromonomer]0 = 300 µM,380000 ± 730000 M⁻¹ s⁻¹
same,Km,native chymotrypsin; [macromonomer]0 = 300 µM,86.1 ± 8.1 µM
same,KM/Vmax,native chymotrypsin; [macromonomer]0 = 400 µM,89.4 ± 11.8 s
same,apparent Vmax,native chymotrypsin; [macromonomer]0 = 400 µM,1.12 ± 0.04 µM/s
same,kcat,native chymotrypsin; [macromonomer]0 = 400 µM,31.0 ± 1.0 s⁻¹
same,kcat/KM,native chymotrypsin; [macromonomer]0 = 400 µM,310000 ± 40000 M⁻¹ s⁻¹
same,Km,native chymotrypsin; [macromonomer]0 = 400 µM,99.7 ± 12.6 µM
same,Ki relative to KM (90 μM) of suc-Ala-Ala-Pro-Phe-pNA,native chymotrypsin; native CT,2.8 fold
same,Ki,"native chymotrypsin; native CT, substrate suc-AAPF-pNA, 100 mM sodium phosphate (pH 8.0), 37 °C, [CT]0 = 40 nM, from secondary plot KM/Vmax app vs [I]0, read-out: Ki",260 µM
Tos-Gly-Pro-Arg-Pro-PEG4-Ala-Ala-Pro-Phe-Ala-Ala-OEGMA [TosGPRPro-PEG4-AAPFAA OEGMA],KM/Vmax,native trypsin; [2],62.9 ± 7.3 s
same,apparent Vmax,native trypsin; [2],0.45 ± 0.02 µM/s
same,kcat,native trypsin; [2],53.4 ± 2.3 s⁻¹
same,kcat/KM,native trypsin; [2],1.89e+06 ± 310000 M⁻¹ s⁻¹
same,Km,native trypsin; [2],28.2 ± 4.5 µM
same,KM/Vmax,native trypsin; [3],77.9 ± 6.3 s
same,apparent Vmax,native trypsin; [3],0.24 ± 0.01 µM/s
same,kcat,native trypsin; [3],28.7 ± 0.7 s⁻¹
same,kcat/KM,native trypsin; [3],1.53e+06 ± 170000 M⁻¹ s⁻¹
same,Km,native trypsin; [3],18.8 ± 2.1 µM
same,KM/Vmax,native trypsin; [4],86.3 ± 7.8 s
same,apparent Vmax,native trypsin; [4],0.31 ± 0.01 µM/s
same,kcat,native trypsin; [4],36.5 ± 1.4 s⁻¹
same,kcat/KM,native trypsin; [4],1.38e+06 ± 180000 M⁻¹ s⁻¹
same,Km,native trypsin; [4],26.4 ± 3.2 µM
same,KM/Vmax,native trypsin; [5],97.7 ± 12.1 s
same,apparent Vmax,native trypsin; [5],0.36 ± 0.02 µM/s
same,kcat,native trypsin; [5],43.3 ± 2.1 s⁻¹
same,kcat/KM,native trypsin; [5],1.22e+06 ± 210000 M⁻¹ s⁻¹
same,Km,native trypsin; [5],35.5 ± 6 µM
same,Ki relative to KM (20 μM) of Tos-Gly-Pro-Arg-pNA,native trypsin; native TR,~7.5 fold
"trypsin from bovine pancreas, Type I (protein, UniProt P00760 24-246, looked up, trypsin from bovine pancreas, Type I (TR), Sigma-Aldrich) Serine protease 1: IVGGYTCGANTVPYQVSLNSGYHFCGGSLINSQWVVSAAHCYKSGIQVRLGEDNINVVEGNEQFISASKSIVHPSYNSNTLNNDIMLIKLKSAASLNSRVASISLPTSCASAGTQCLISGWGNTKSSGTSYPDVLKCLKAPILSDSSCKSAYPGQITSNMFCAGYLEGGKDSCQGDSGGPVVCSGKLQGIVSWGSGCAQKNKPGVYTKVCNYVSWIKQTIASN",kcat,[1]; [6],63.5 s^–1 and 63.5 ± 1.3 s^–1
same,kcat/KM,[1]; [6],2.87 ± 0.25 μM^–1 s^–1
same,Km,"[1]; [TR]0 = 8.4 nM, [Tos-GPR-pNA]0 = 0–302 μM, 100 mM Tris–HCl and 20 mM CaCl2 (pH 8.0), 37 °C, absorbance 412 nm, first 45 s, Enzfitter, read-out: KM",22.2 ± 1.9 µM
